Test results from PubChem BioAssay (NCI).
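Tested at 5 concentrations; 48 h exposure; 96-well plates; endpoints linearly interpolated, else capped at highest concentration. TGI denotes the concentration required for complete inhibition of growth.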

What was measured:
Assay in all cases: inhibition of tumour cell growth, NCI panel, 48 h
786-0 renal = system: 786-0 renal
A498 renal = system: A498 renal
A549 NSCLC = system: A549 NSCLC
ACHN renal = system: ACHN renal
BT-549 breast = system: BT-549 breast
CAKI-1 renal = system: CAKI-1 renal
CCRF-CEM leukemia = system: CCRF-CEM leukemia
COLO 205 colon = system: COLO 205 colon
DU-145 prostate = system: DU-145 prostate
EKVX NSCLC = system: EKVX NSCLC
HCC-2998 colon = system: HCC-2998 colon
HCT-116 colon = system: HCT-116 colon
HCT-15 colon = system: HCT-15 colon
HL-60(TB) leukemia = system: HL-60(TB) leukemia
HOP-62 NSCLC = system: HOP-62 NSCLC
HOP-92 NSCLC = system: HOP-92 NSCLC
HS 578T breast = system: HS 578T breast
HT29 colon = system: HT29 colon
IGROV1 ovarian = system: IGROV1 ovarian
K-562 leukemia = system: K-562 leukemia
KM12 colon = system: KM12 colon
LOX IMVI melanoma = system: LOX IMVI melanoma
M14 melanoma = system: M14 melanoma
MALME-3M melanoma = system: MALME-3M melanoma
MCF7 breast = system: MCF7 breast
MDA-MB-231 breast = system: MDA-MB-231 breast
MDA-MB-435 = system: MDA-MB-435
MDA-N = system: MDA-N
MOLT-4 leukemia = system: MOLT-4 leukemia
NCI-H226 lung = system: NCI-H226 lung
NCI-H23 lung = system: NCI-H23 lung
NCI-H460 lung = system: NCI-H460 lung
NCI-H522 lung = system: NCI-H522 lung
NCI/ADR-RES ovarian = system: NCI/ADR-RES ovarian
OVCAR-3 ovarian = system: OVCAR-3 ovarian
OVCAR-4 ovarian = system: OVCAR-4 ovarian
OVCAR-5 ovarian = system: OVCAR-5 ovarian
OVCAR-8 ovarian = system: OVCAR-8 ovarian
PC-3 prostate = system: PC-3 prostate
RPMI-8226 leukemia = system: RPMI-8226 leukemia
RXF 393 renal = system: RXF 393 renal
SF-268 CNS = system: SF-268 CNS
SF-295 CNS = system: SF-295 CNS
SF-539 CNS = system: SF-539 CNS
SK-MEL-2 melanoma = system: SK-MEL-2 melanoma
SK-MEL-28 melanoma = system: SK-MEL-28 melanoma
SK-MEL-5 melanoma = system: SK-MEL-5 melanoma
SK-OV-3 ovarian = system: SK-OV-3 ovarian
SN12C renal = system: SN12C renal
SNB-19 CNS = system: SNB-19 CNS
SNB-75 CNS = system: SNB-75 CNS
SR leukemia = system: SR leukemia
SW-620 colon = system: SW-620 colon
T-47D breast = system: T-47D breast
TK-10 renal = system: TK-10 renal
U251 CNS = system: U251 CNS
UACC-257 melanoma = system: UACC-257 melanoma
UACC-62 melanoma = system: UACC-62 melanoma
UO-31 renal = system: UO-31 renal

SMILES: [O-]/[N+](=C\c1ccccc1OC(=S)S)c1ccc(Cl)cc1
- TGI (786-0 renal): 50.3 µM
- TGI (A498 renal): > 100 µM
- TGI (A549 NSCLC): > 100 µM
- TGI (ACHN renal): > 100 µM
- TGI (BT-549 breast): > 100 µM
- TGI (CAKI-1 renal): > 100 µM
- TGI (CCRF-CEM leukemia): > 100 µM
- TGI (COLO 205 colon): 26.7 µM
- TGI (DU-145 prostate): > 100 µM
- TGI (EKVX NSCLC): > 100 µM
- TGI (HCC-2998 colon): > 100 µM
- TGI (HCT-116 colon): 72.7 µM
- TGI (HCT-15 colon): > 100 µM
- TGI (HL-60(TB) leukemia): 45 µM
- TGI (HOP-62 NSCLC): > 100 µM
- TGI (HOP-92 NSCLC): 18.1 µM
- TGI (HS 578T breast): > 100 µM
- TGI (HT29 colon): > 100 µM
- TGI (IGROV1 ovarian): 30.7 µM
- TGI (K-562 leukemia): > 100 µM
- TGI (KM12 colon): > 100 µM
- TGI (LOX IMVI melanoma): 38.8 µM
- TGI (M14 melanoma): > 100 µM
- TGI (MALME-3M melanoma): > 100 µM
- TGI (MCF7 breast): 64.8 µM
- TGI (MDA-MB-231 breast): 34.7 µM
- TGI (MDA-MB-435): 47.3 µM
- TGI (MDA-N): > 100 µM
- TGI (MOLT-4 leukemia): > 100 µM
- TGI (NCI-H226 lung): > 100 µM
- TGI (NCI-H23 lung): > 100 µM
- TGI (NCI-H460 lung): > 100 µM
- TGI (NCI-H522 lung): 52.8 µM
- TGI (NCI/ADR-RES ovarian): > 100 µM
- TGI (OVCAR-3 ovarian): > 100 µM
- TGI (OVCAR-4 ovarian): 37 µM
- TGI (OVCAR-5 ovarian): > 100 µM
- TGI (OVCAR-8 ovarian): 30.2 µM
- TGI (PC-3 prostate): > 100 µM
- TGI (RPMI-8226 leukemia): > 100 µM
- TGI (RXF 393 renal): > 100 µM
- TGI (SF-268 CNS): 77.7 µM
- TGI (SF-295 CNS): > 100 µM
- TGI (SF-539 CNS): > 100 µM
- TGI (SK-MEL-2 melanoma): > 100 µM
- TGI (SK-MEL-28 melanoma): > 100 µM
- TGI (SK-MEL-5 melanoma): > 100 µM
- TGI (SK-OV-3 ovarian): > 100 µM
- TGI (SN12C renal): 97.8 µM
- TGI (SNB-19 CNS): > 100 µM
- TGI (SNB-75 CNS): > 100 µM
- TGI (SR leukemia): > 100 µM
- TGI (SW-620 colon): > 100 µM
- TGI (T-47D breast): 88.2 µM
- TGI (TK-10 renal): > 100 µM
- TGI (U251 CNS): > 100 µM
- TGI (UACC-257 melanoma): > 100 µM
- TGI (UACC-62 melanoma): > 100 µM
- TGI (UO-31 renal): 76.6 µM

SMILES: COC(=O)c1cc(C#N)[nH]c1-c1cc(Br)cs1
- TGI (786-0 renal): 48.7 µM
- TGI (A498 renal): 18.4 µM
- TGI (A549 NSCLC): 31.7 µM
- TGI (ACHN renal): 61.9 µM
- TGI (BT-549 breast): 35.1 µM
- TGI (CAKI-1 renal): 62.7 µM
- TGI (CCRF-CEM leukemia): 39.3 µM
- TGI (COLO 205 colon): 35.6 µM
- TGI (DU-145 prostate): 43.1 µM
- TGI (EKVX NSCLC): 47.6 µM
- TGI (HCC-2998 colon): > 57.5 µM
- TGI (HCT-116 colon): 28.3 µM
- TGI (HCT-15 colon): 33.2 µM
- TGI (HL-60(TB) leukemia): 38.5 µM
- TGI (HOP-62 NSCLC): 29.9 µM
- TGI (HOP-92 NSCLC): 19.1 µM
- TGI (HS 578T breast): 45.4 µM
- TGI (HT29 colon): 31.7 µM
- TGI (IGROV1 ovarian): 35.3 µM
- TGI (K-562 leukemia): > 79.9 µM
- TGI (KM12 colon): > 53.4 µM
- TGI (LOX IMVI melanoma): 25.5 µM
- TGI (M14 melanoma): 27.7 µM
- TGI (MALME-3M melanoma): 34.9 µM
- TGI (MCF7 breast): 33.7 µM
- TGI (MDA-MB-231 breast): 51.7 µM
- TGI (MDA-MB-435): 31.5 µM
- TGI (MDA-N): 29.4 µM
- TGI (MOLT-4 leukemia): 50.8 µM
- TGI (NCI-H226 lung): 49.4 µM
- TGI (NCI-H23 lung): 25.7 µM
- TGI (NCI-H460 lung): 54.5 µM
- TGI (NCI-H522 lung): 13.3 µM
- TGI (NCI/ADR-RES ovarian): 39.3 µM
- TGI (OVCAR-3 ovarian): 21.9 µM
- TGI (OVCAR-4 ovarian): > 57.7 µM
- TGI (OVCAR-5 ovarian): 55.7 µM
- TGI (OVCAR-8 ovarian): 43.7 µM
- TGI (PC-3 prostate): 40.9 µM
- TGI (RPMI-8226 leukemia): 51.2 µM
- TGI (RXF 393 renal): 23 µM
- TGI (SF-268 CNS): 51 µM
- TGI (SF-295 CNS): 24.7 µM
- TGI (SF-539 CNS): 33.3 µM
- TGI (SK-MEL-2 melanoma): 35.2 µM
- TGI (SK-MEL-28 melanoma): 36.5 µM
- TGI (SK-MEL-5 melanoma): 21.2 µM
- TGI (SK-OV-3 ovarian): 46 µM
- TGI (SN12C renal): 32.3 µM
- TGI (SNB-19 CNS): 37.3 µM
- TGI (SNB-75 CNS): 22.6 µM
- TGI (SR leukemia): > 66.3 µM
- TGI (SW-620 colon): 40.2 µM
- TGI (T-47D breast): 12.8 µM
- TGI (TK-10 renal): 57.1 µM
- TGI (U251 CNS): 32.1 µM
- TGI (UACC-257 melanoma): 28.9 µM
- TGI (UACC-62 melanoma): 38.4 µM
- TGI (UO-31 renal): 29.5 µM

SMILES: O=[N+]([O-])c1ccc2c(c1)C1=NN(c3ccccc3)C(c3ccccc3Br)C1CCC2 (configuration not stated)
- TGI (786-0 renal): > 50 µM
- TGI (A498 renal): > 50 µM
- TGI (A549 NSCLC): > 50 µM
- TGI (ACHN renal): > 50 µM
- TGI (BT-549 breast): 35 µM
- TGI (CAKI-1 renal): > 50 µM
- TGI (CCRF-CEM leukemia): 27.4 µM
- TGI (COLO 205 colon): > 50 µM
- TGI (DU-145 prostate): > 50 µM
- TGI (EKVX NSCLC): > 50 µM
- TGI (HCC-2998 colon): > 50 µM
- TGI (HCT-116 colon): > 50 µM
- TGI (HCT-15 colon): > 50 µM
- TGI (HL-60(TB) leukemia): 24.1 µM
- TGI (HOP-62 NSCLC): > 50 µM
- TGI (HOP-92 NSCLC): 48.1 µM
- TGI (HS 578T breast): > 50 µM
- TGI (HT29 colon): > 50 µM
- TGI (IGROV1 ovarian): > 50 µM
- TGI (K-562 leukemia): > 50 µM
- TGI (KM12 colon): > 50 µM
- TGI (LOX IMVI melanoma): > 50 µM
- TGI (M14 melanoma): > 50 µM
- TGI (MALME-3M melanoma): > 50 µM
- TGI (MCF7 breast): > 50 µM
- TGI (MDA-MB-231 breast): > 50 µM
- TGI (MDA-MB-435): > 50 µM
- TGI (MDA-N): > 50 µM
- TGI (MOLT-4 leukemia): > 50 µM
- TGI (NCI-H226 lung): > 50 µM
- TGI (NCI-H23 lung): > 50 µM
- TGI (NCI-H460 lung): > 50 µM
- TGI (NCI-H522 lung): > 50 µM
- TGI (NCI/ADR-RES ovarian): 45.6 µM
- TGI (OVCAR-3 ovarian): > 50 µM
- TGI (OVCAR-4 ovarian): > 50 µM
- TGI (OVCAR-5 ovarian): > 50 µM
- TGI (OVCAR-8 ovarian): > 50 µM
- TGI (PC-3 prostate): > 50 µM
- TGI (RPMI-8226 leukemia): 48.4 µM
- TGI (RXF 393 renal): 43 µM
- TGI (SF-268 CNS): > 50 µM
- TGI (SF-295 CNS): > 50 µM
- TGI (SF-539 CNS): > 50 µM
- TGI (SK-MEL-2 melanoma): > 50 µM
- TGI (SK-MEL-28 melanoma): > 50 µM
- TGI (SK-MEL-5 melanoma): > 50 µM
- TGI (SK-OV-3 ovarian): > 50 µM
- TGI (SN12C renal): > 50 µM
- TGI (SNB-19 CNS): > 50 µM
- TGI (SNB-75 CNS): > 50 µM
- TGI (SR leukemia): > 50 µM
- TGI (SW-620 colon): > 50 µM
- TGI (T-47D breast): 47.3 µM
- TGI (TK-10 renal): > 50 µM
- TGI (U251 CNS): > 50 µM
- TGI (UACC-257 melanoma): > 50 µM
- TGI (UACC-62 melanoma): 34.4 µM
- TGI (UO-31 renal): > 50 µM
